Laboratory results reported in patent US12492243B2, “DNA antibody constructs for use against Pseudomonas aeruginosa” (priority 2016, dated 2025).

Tested on: Pseudomonas aeruginosa strain 6077
Test: Lethal pneumonia challenge in BALB/c mice
Type: in vivo
Details: MEM 2.3 mg/kg alone or DMAb-DVSF3 100 μg, lethal PA 6077
Method: The unrelated dengue virus DMAb-DVSF3^20 was included as a control. A fourth group of animals received an intraperitoneal (IP) injection of purified protein IgG ABC123 (2 mg/kg) on day −1 before challenge. […] Animals were monitored for 6 days following intranasal challenge for survival as described in^16. Briefly, animals were anesthetized with ketamine and xylazine followed by intranasal administration of the bacterial inoculum contained in 0.05 ml. […] IL-1β, IL-6 and KC/GRO were quantified from the supernatant of lung homogenates using a multiplex kit (Meso Scale Diagnostics) according to the manufactures instructions. For DMAb and meropenem (MEM) combination experiments, MEM was administered subcutaneously 4 hours after infection.

C[C@@H](O)[C@H]1C(=O)N2C(C(=O)O)=C(S[C@@H]3CN[C@H](C(=O)N(C)C)C3)[C@H](C)[C@H]12 [MEM, meropenem, reference compound]
survival, DMAb and meropenem combination experiment: did not survive
